Measured values taken from the NIST ThermoML archive (doi:10.1021/je200050q).
Numbers after ± are expanded uncertainties.

Assay: activity coefficient (dimensionless); of the first substance listed, at infinite dilution; xn = mol fraction of the nth substance listed
Conditions: 101 kPa, Liquid, Chromatography, x1 = 0

| SMILES | activity coefficient (303.15 K) | activity coefficient (313.15 K) | activity coefficient (323.15 K) | activity coefficient (333.15 K) | activity coefficient (343.15 K) | activity coefficient (353.15 K) | activity coefficient (363.15 K) |
| --- | --- | --- | --- | --- | --- | --- | --- |
| Cc1ccccc1C [1,2-dimethylbenzene] + CCCCn1cc[n+](C)c1.O=[N+]([O-])[O-] | 4.31 ± 0.24 | 4.38 ± 0.24 | 4.44 ± 0.25 | 4.49 ± 0.25 | 4.54 ± 0.25 | 4.58 ± 0.25 | 4.63 ± 0.26 |
| Cc1cccc(C)c1 [1,3-dimethylbenzene] + CCCCn1cc[n+](C)c1.O=[N+]([O-])[O-] | 5.42 ± 0.3 | 5.47 ± 0.3 | 5.5 ± 0.3 | 5.55 ± 0.31 | 5.57 ± 0.31 | 5.62 ± 0.31 | 5.61 ± 0.31 |
| Cc1ccc(C)cc1 [1,4-dimethylbenzene] + CCCCn1cc[n+](C)c1.O=[N+]([O-])[O-] | 5.06 ± 0.28 | 5.17 ± 0.29 | 5.16 ± 0.29 | 5.22 ± 0.29 | 5.22 ± 0.29 | 5.24 ± 0.29 | 5.26 ± 0.29 |
| CC(C)=O [acetone] + CCCCn1cc[n+](C)c1.O=[N+]([O-])[O-] | 1.11 ± 0.055 | 1.12 ± 0.055 | 1.13 ± 0.056 | 1.16 ± 0.058 | 1.17 ± 0.059 | 1.23 ± 0.062 | 1.25 ± 0.063 |
| CC#N [acetonitrile] + CCCCn1cc[n+](C)c1.O=[N+]([O-])[O-] | 0.6 ± 0.035 | 0.605 ± 0.035 | 0.615 ± 0.035 | 0.62 ± 0.035 | 0.626 ± 0.036 | 0.63 ± 0.036 | 0.644 ± 0.036 |
| c1ccccc1 [benzene] + CCCCn1cc[n+](C)c1.O=[N+]([O-])[O-] | 1.85 ± 0.1 | 1.88 ± 0.1 | 1.91 ± 0.1 | 1.95 ± 0.11 | 2.01 ± 0.11 | 1.99 ± 0.11 | 2.02 ± 0.11 |
| C1CCCCC1 [cyclohexane] + CCCCn1cc[n+](C)c1.O=[N+]([O-])[O-] | 29.8 ± 1.7 | 27.6 ± 1.5 | 25.6 ± 1.4 | 23.9 ± 1.3 | 22.4 ± 1.2 | 21.1 ± 1.2 | 19.9 ± 1.1 |
| ClCCl [dichloromethane] + CCCCn1cc[n+](C)c1.O=[N+]([O-])[O-] | 0.464 ± 0.031 | 0.491 ± 0.032 | 0.526 ± 0.033 | 0.552 ± 0.033 | 0.579 ± 0.034 | 0.602 ± 0.035 | 0.64 ± 0.036 |
| CCO [ethanol] + CCCCn1cc[n+](C)c1.O=[N+]([O-])[O-] | 0.564 ± 0.034 | 0.543 ± 0.033 | 0.529 ± 0.033 | 0.52 ± 0.033 | 0.511 ± 0.032 | 0.508 ± 0.032 | 0.507 ± 0.032 |
| CCOC(C)=O [ethyl acetate] + CCCCn1cc[n+](C)c1.O=[N+]([O-])[O-] | 2.93 ± 0.16 | 2.98 ± 0.17 | 3.01 ± 0.17 | 3.04 ± 0.17 | 3.07 ± 0.17 | 3.18 ± 0.18 | 3.25 ± 0.18 |
| CCc1ccccc1 [ethylbenzene] + CCCCn1cc[n+](C)c1.O=[N+]([O-])[O-] | 5.53 ± 0.31 | 5.55 ± 0.31 | 5.56 ± 0.31 | 5.56 ± 0.31 | 5.6 ± 0.31 | 5.59 ± 0.31 | 5.61 ± 0.31 |
| CCCCCCC [heptane] + CCCCn1cc[n+](C)c1.O=[N+]([O-])[O-] | 105 ± 5.9 | 97.1 ± 5.4 | 89.9 ± 5 | 83.6 ± 4.7 | 78.1 ± 4.4 | 73.2 ± 4.1 | 68.9 ± 3.8 |
| CCCCCC [hexane] + CCCCn1cc[n+](C)c1.O=[N+]([O-])[O-] | 63.9 ± 3.6 | 58.1 ± 3.2 | 53.1 ± 3 | 48.8 ± 2.7 | 45.1 ± 2.5 | 41.8 ± 2.3 | 39 ± 2.2 |
| CO [methanol] + CCCCn1cc[n+](C)c1.O=[N+]([O-])[O-] | 0.322 ± 0.029 | 0.318 ± 0.029 | 0.315 ± 0.029 | 0.31 ± 0.029 | 0.307 ± 0.029 | 0.303 ± 0.029 | 0.302 ± 0.029 |
| CC1CCCCC1 [methylcyclohexane] + CCCCn1cc[n+](C)c1.O=[N+]([O-])[O-] | 45.3 ± 2.5 | 42.1 ± 2.4 | 39.4 ± 2.2 | 37 ± 2.1 | 34.9 ± 1.9 | 33 ± 1.8 | 31.2 ± 1.7 |
| CCCCCCCCC [nonane] + CCCCn1cc[n+](C)c1.O=[N+]([O-])[O-] | 263 ± 15 | 238 ± 13 | 218 ± 12 | 200 ± 11 | 184 ± 10 | 171 ± 9.6 | 159 ± 8.9 |
| CCCCCCCC [octane] + CCCCn1cc[n+](C)c1.O=[N+]([O-])[O-] | 168 ± 9.4 | 154 ± 8.6 | 141 ± 7.9 | 131 ± 7.3 | 121 ± 6.8 | 113 ± 6.3 | 106 ± 5.9 |
| CCCO [propan-1-ol] + CCCCn1cc[n+](C)c1.O=[N+]([O-])[O-] | 0.765 ± 0.04 | 0.732 ± 0.039 | 0.706 ± 0.038 | 0.687 ± 0.037 | 0.674 ± 0.037 | 0.662 ± 0.037 | 0.654 ± 0.036 |
| ClC(Cl)(Cl)Cl [tetrachloromethane] + CCCCn1cc[n+](C)c1.O=[N+]([O-])[O-] | 2.09 ± 0.12 | 2.17 ± 0.12 | 2.4 ± 0.13 | 2.52 ± 0.14 | 2.65 ± 0.15 | 2.81 ± 0.15 | 2.83 ± 0.16 |
| Cc1ccccc1 [toluene] + CCCCn1cc[n+](C)c1.O=[N+]([O-])[O-] | 3.09 ± 0.17 | 3.15 ± 0.17 | 3.19 ± 0.18 | 3.24 ± 0.18 | 3.29 ± 0.18 | 3.33 ± 0.18 | 3.37 ± 0.19 |
| ClC(Cl)Cl [trichloromethane] + CCCCn1cc[n+](C)c1.O=[N+]([O-])[O-] | 0.28 ± 0.028 | 0.316 ± 0.029 | 0.334 ± 0.029 | 0.39 ± 0.03 | 0.415 ± 0.03 | 0.445 ± 0.031 | 0.504 ± 0.032 |
